Assay results: patent US20230399313A1, “BIOLOGICAL ACTIVITIES OF 5-(2-(4-(4-FLUORO-2-METHYL-1H-INDOL-5-YLOXY)-6-METHOXYQUINOLIN-7-YLOXY)ETHYL)-5-AZASPIRO[2.4]-HEPTAN-7-OL CRYSTALLINE, PHOSPHORIC ACID SALT AND ITS ENANTIOMERS” (Advenchen Pharmaceuticals, LLC, priority 2022, published 2023)

Key:
[1] = molecular target: Aurora-B (Homo sapiens, UniProt Q96GD4); assay: Kinase inhibition; assay type: biochemical
From the text: (§1) In vitro tyrosine kinase inhibition activities can be measured via commercial resources. Some of these tests can also be contracted with Eurofin or Reaction Biology for screening.
(§2) For the kinase inhibition tests, receptor tyrosine kinases are selected from FGFR1(h), FGFR2(h), FGFR3(h), Flt1(h) (VEGFr1), Flt4(h) (VEGFr3), KDR(h) (VEGFr2), Aurora-B, PDGFRα(h) and PDGFRβ(h).

[2] = molecular target: FGFR1(h) (Homo sapiens, UniProt P11362); assay: Kinase inhibition; assay type: biochemical
From the text: as §1, §2

[3] = molecular target: FGFR2(h) (Homo sapiens, UniProt P21802); assay: Kinase inhibition; assay type: biochemical
From the text: as §1, §2

[4] = molecular target: FGFR3(h) (Homo sapiens, UniProt P22607); assay: Kinase inhibition; assay type: biochemical
From the text: as §1, §2

[5] = molecular target: Flt1(h) (VEGFr1) (Homo sapiens, UniProt P17948); assay: Kinase inhibition; assay type: biochemical
From the text: as §1, §2

[6] = molecular target: Flt4(h) (VEGFr3) (Homo sapiens, UniProt P35916); assay: Kinase inhibition; assay type: biochemical
From the text: as §1, §2

[7] = tested on: A2780; assay: In vitro MTT (proliferation) assay; assay type: cell-based; conditions: Homo sapiens, Ovary
[8] = tested on: HL-60; assay: In vitro MTT (proliferation) assay; assay type: cell-based; conditions: Homo sapiens, Blood
[9] = tested on: HCT-116; assay: In vitro MTT (proliferation) assay; assay type: cell-based; conditions: Homo sapiens, Colon, read-out: IC50
Method: (§3) The inhibitions of Compound A-Xln, Compound A-P-Xln and two chiral isomers (Compound R-A, Compound S-A) to cancer cell lines are tested via in vitro MTT assay. Cancer cell lines are selected from PANC-1, NCI-H157, MDA-MB-231, Hela, PC-3, BEL7404, MKN45, Ishikawa, Saos-2, SKOV3, SW579 and HCT116 cell lines. The IC50 values are in the micromole scale.
(§4) In vitro MTT (proliferation) assay was performed with compound from above examples to give following inhibition results: […]

[10] = tested on: Hela; assay: In vitro MTT (proliferation) assay; assay type: cell-based; conditions: Homo sapiens; Cervix, Hela; read-out: IC50
Method: as §3, §4

[11] = tested on: MDA-MB-231; assay: In vitro MTT (proliferation) assay; assay type: cell-based; conditions: Homo sapiens; Breast, MDA-MB-231; read-out: IC50
Method: as §3, §4

[12] = tested on: SKOV3; assay: In vitro MTT (proliferation) assay; assay type: cell-based; conditions: Homo sapiens, SK-OV-3; Ovary, SKOV3; read-out: IC50
Method: as §3, §4

[13] = tested on: U937; assay: In vitro MTT (proliferation) assay; assay type: cell-based; conditions: Homo sapiens, U-937, Blood
Method: as §3, §4

[14] = tested on: 95-D; assay: In vitro MTT (proliferation) assay; assay type: cell-based; conditions: Lung
[15] = tested on: BEL-7402; assay: In vitro MTT (proliferation) assay; assay type: cell-based; conditions: Homo sapiens, Liver
[16] = tested on: HepG2; assay: In vitro MTT (proliferation) assay; assay type: cell-based; conditions: Homo sapiens, Liver
[17] = tested on: SMMC-7721; assay: In vitro MTT (proliferation) assay; assay type: cell-based; conditions: Homo sapiens, Liver
[18] = tested on: 786-O; assay: In vitro MTT (proliferation) assay; assay type: cell-based; conditions: Homo sapiens, 786-0, Kidney
[19] = tested on: SGC7901; assay: In vitro MTT (proliferation) assay; assay type: cell-based; conditions: Homo sapiens, SGC-7901, Stomach
[20] = tested on: NSCLC 95-D; assay: In vivo xenograft model; parameters: species or system nude mouse; conditions: 95-D xenograft, oral daily 14-21 days, tumor weight vs control
Method: (§5) Animal antitumor activity in vivo xenograft models with various tumor cell lines (SCLC NCI-H1436, NSCLC 95-D, ovarian SKVO3, renal 786-O, liver Bel-7420, brain U87) were performed as follows: The well grown tumor tissues of tumor cell lines were cut into 3 mm pieces, and each nude mouse was subcutaneously inoculated with one piece into the right flank. The animals were grouped and administered at pre-designed dosing. Treatments were initiated when the tumor size reached above 100 mm^3 after 10-14 days. According to the size of tumor, the animals with oversize or undersize tumors were eliminated, and the animals were grouped with similar average tumor volume. Then the animals were orally administrated daily for continuous 14-21 days. The large diameter a (mm) and the small diameter b (mm) were measured with caliper twice a week after inoculation for 13 days. Each tumor volume was calculated by formular: TV=ab^2/2 and the relative tumor volume was calculated as: RTV=Vt/Vo, Vo represents the tumor volume on the first day of treatment; Vt represents the tumor volume on each measurement day. The animals were executed and tumors were extracted by dissection 20-30 days after inoculation. The individual body weight and tumor weight were determined and calculated. Tumor Inhibit percentage was calculated as [1−((TWt)/(TWc)×100%, where TWt represents mean tumor weight of a treated group on the last day during the experiment, TWc represents mean tumor weight of the control group on the last day during the experiment. Experimental dosing and efficacy results are shown in FIGS. 19-24 of Drawing. The best tumor inhibition percentage ranges are >70% to 100%.

[21] = tested on: SCLC NCI-H1436; assay: In vivo xenograft model; parameters: species or system nude mouse; conditions: oral daily 14-21 days, tumor weight vs control
Method: as §5

[22] = tested on: brain U87; assay: In vivo xenograft model; parameters: species or system nude mouse; conditions: oral daily 14-21 days, tumor weight vs control
Method: as §5

[23] = tested on: liver Bel-7420; assay: In vivo xenograft model; parameters: species or system nude mouse; conditions: Bel-7420 xenograft, oral daily 14-21 days, tumor weight vs control
Method: as §5

[24] = tested on: ovarian SKVO3; assay: In vivo xenograft model; parameters: species or system nude mouse; conditions: oral daily 14-21 days, tumor weight vs control
Method: as §5

[25] = tested on: renal 786-O; assay: In vivo xenograft model; parameters: species or system nude mouse; conditions: 786-O xenograft, oral daily 14-21 days, tumor weight vs control
Method: as §5

FGFR3(h), sequence (P22607 23-806): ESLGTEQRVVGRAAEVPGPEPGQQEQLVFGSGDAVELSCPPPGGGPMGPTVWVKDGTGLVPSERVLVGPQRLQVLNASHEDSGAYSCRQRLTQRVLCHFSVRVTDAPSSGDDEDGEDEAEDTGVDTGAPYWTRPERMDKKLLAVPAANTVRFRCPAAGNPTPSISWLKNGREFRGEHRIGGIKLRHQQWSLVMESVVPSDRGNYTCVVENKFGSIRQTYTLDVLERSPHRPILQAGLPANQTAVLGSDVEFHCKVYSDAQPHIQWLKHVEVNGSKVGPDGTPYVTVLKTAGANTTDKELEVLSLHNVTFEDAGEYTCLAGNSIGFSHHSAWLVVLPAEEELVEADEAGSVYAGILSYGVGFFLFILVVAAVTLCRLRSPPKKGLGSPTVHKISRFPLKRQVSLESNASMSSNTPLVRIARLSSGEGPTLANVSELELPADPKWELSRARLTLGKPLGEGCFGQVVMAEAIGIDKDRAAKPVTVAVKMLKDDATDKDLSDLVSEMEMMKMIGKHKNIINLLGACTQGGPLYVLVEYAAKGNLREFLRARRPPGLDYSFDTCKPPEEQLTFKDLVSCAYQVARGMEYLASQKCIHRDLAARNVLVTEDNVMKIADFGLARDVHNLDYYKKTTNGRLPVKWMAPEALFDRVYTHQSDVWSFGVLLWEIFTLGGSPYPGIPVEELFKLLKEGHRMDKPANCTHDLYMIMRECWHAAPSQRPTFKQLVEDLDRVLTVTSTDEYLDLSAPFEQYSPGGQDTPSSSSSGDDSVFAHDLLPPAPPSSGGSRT
Flt1(h) (VEGFr1), sequence (P17948 27-1338): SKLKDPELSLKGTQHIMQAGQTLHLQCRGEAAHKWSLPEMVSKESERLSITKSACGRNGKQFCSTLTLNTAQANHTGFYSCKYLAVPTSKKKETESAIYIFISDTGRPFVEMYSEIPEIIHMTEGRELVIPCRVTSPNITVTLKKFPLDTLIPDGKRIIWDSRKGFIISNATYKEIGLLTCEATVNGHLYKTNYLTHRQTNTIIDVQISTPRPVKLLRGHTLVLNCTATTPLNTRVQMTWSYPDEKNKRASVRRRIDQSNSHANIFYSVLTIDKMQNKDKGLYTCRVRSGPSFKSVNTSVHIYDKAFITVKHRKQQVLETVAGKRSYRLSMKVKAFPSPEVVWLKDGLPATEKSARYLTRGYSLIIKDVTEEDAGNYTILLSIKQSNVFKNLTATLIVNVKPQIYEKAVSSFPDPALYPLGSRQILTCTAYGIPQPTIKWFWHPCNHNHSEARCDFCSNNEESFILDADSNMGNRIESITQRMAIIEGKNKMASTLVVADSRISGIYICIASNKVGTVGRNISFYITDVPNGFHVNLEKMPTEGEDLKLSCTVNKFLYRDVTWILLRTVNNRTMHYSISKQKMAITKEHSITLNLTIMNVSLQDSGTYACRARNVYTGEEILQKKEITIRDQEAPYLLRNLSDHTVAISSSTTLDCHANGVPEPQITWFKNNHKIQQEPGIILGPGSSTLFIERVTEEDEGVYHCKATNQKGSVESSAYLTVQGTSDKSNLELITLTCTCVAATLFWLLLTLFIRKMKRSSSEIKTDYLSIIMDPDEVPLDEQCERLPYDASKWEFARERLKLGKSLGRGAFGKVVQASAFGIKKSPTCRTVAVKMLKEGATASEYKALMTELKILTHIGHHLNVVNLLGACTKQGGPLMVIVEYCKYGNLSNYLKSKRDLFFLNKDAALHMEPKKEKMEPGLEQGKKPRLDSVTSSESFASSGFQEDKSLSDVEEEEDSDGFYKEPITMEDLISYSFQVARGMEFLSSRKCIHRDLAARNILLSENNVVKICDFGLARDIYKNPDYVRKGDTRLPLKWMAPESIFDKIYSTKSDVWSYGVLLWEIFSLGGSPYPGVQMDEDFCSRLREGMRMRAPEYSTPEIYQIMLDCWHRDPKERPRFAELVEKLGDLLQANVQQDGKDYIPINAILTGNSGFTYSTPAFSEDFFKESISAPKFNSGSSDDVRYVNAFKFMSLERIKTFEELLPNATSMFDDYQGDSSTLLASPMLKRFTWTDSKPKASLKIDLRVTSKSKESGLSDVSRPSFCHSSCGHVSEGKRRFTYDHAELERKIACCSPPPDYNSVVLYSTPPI
Flt4(h) (VEGFr3), sequence (P35916 25-1363): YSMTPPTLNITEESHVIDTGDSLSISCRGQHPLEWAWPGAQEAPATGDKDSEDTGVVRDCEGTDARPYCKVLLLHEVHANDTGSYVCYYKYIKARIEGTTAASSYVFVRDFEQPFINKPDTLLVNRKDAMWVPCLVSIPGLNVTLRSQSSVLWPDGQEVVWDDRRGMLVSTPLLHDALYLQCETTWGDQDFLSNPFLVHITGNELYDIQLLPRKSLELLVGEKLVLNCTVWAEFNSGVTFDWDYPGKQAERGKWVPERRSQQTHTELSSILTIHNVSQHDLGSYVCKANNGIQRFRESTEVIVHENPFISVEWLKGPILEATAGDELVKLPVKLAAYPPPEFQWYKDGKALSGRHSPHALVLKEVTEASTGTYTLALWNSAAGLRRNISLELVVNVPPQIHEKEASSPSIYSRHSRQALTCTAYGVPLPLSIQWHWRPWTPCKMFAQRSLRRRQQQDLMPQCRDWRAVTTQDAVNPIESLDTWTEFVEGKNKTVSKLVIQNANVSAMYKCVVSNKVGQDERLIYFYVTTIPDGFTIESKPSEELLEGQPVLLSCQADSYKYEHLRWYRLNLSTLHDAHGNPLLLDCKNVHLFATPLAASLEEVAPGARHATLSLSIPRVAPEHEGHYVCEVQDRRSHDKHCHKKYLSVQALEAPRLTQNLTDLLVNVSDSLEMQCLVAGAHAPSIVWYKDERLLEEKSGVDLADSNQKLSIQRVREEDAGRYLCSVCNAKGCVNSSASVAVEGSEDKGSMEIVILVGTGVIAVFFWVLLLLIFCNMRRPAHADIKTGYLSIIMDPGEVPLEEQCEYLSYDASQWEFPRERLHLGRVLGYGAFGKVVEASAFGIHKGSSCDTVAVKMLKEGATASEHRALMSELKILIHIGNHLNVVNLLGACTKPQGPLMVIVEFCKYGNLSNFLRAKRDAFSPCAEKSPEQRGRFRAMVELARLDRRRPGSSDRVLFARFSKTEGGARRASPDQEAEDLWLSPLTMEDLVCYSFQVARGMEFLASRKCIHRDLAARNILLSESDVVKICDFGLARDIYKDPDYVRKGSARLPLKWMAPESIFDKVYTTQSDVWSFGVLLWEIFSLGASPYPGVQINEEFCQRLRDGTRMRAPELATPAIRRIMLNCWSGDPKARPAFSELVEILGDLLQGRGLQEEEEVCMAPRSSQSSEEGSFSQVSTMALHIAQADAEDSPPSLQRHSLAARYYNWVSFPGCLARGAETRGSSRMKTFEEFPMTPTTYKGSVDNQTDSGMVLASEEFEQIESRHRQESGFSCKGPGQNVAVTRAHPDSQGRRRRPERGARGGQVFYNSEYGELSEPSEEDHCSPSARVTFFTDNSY
FGFR2(h), sequence (P21802 22-821): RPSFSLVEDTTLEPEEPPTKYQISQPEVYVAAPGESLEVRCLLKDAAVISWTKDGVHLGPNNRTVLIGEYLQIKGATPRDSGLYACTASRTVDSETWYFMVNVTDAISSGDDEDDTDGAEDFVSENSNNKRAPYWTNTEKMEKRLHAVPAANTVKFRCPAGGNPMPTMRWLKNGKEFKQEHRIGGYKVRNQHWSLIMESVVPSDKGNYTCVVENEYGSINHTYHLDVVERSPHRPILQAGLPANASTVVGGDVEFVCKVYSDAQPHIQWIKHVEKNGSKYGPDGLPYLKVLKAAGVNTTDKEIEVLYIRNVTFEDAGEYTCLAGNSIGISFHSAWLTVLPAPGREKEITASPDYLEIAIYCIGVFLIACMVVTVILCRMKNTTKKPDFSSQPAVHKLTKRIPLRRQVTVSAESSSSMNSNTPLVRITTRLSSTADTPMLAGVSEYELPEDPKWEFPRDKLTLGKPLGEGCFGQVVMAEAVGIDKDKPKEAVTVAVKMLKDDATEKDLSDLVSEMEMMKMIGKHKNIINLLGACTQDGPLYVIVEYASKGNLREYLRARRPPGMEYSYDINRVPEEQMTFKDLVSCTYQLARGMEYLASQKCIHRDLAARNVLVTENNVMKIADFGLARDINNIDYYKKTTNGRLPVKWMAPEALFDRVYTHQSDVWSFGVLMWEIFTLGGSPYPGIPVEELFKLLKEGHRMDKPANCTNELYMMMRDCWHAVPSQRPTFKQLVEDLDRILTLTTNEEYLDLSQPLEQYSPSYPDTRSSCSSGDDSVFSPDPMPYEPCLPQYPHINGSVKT
FGFR1(h), sequence (P11362 22-822): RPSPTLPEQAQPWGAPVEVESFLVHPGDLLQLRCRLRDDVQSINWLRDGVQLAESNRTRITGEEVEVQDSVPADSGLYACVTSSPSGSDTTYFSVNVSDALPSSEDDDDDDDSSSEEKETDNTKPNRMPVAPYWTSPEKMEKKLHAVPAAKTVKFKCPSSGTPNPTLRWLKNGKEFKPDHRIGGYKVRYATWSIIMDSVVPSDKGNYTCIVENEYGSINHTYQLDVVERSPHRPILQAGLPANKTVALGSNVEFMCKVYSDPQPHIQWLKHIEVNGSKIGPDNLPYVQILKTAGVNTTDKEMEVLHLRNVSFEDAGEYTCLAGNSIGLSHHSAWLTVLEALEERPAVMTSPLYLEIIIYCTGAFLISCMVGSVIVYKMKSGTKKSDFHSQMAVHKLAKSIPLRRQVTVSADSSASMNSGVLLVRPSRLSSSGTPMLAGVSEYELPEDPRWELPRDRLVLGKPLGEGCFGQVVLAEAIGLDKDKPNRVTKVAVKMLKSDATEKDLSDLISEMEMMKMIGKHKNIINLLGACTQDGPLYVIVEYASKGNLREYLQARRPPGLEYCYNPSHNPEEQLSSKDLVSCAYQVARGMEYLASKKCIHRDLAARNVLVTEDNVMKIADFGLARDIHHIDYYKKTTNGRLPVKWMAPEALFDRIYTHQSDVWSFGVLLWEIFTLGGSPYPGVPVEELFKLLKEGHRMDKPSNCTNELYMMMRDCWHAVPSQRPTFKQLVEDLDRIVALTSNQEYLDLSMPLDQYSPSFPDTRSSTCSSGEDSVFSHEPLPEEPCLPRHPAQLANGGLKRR

COc1cc2c(Oc3ccc4[nH]c(C)cc4c3F)ccnc2cc1OCCN1CC(O)C2(CC2)C1 (stereo not shown) [Compound A-Xln, 5-(2-(4-(4-fluoro-2-methyl-1H-indol-5-yloxy)-6-methoxyquinolin-7-yloxy)ethyl)-5-azaspiro[2.4]-heptan-7-ol]
IC50 [1]: 0.047 µM
IC50 [2]: 0.004 µM
IC50 [3]: 0.008 µM
IC50 [4]: 0.006 µM
IC50 [5]: 0.004 µM
IC50 [6]: 0.002 µM
IC50 [7]: 2.63 ± 0.27 µM
IC50 [8]: 1.98 ± 1.13 µM
IC50 [9]: 11.7 ± 3.69 µM
IC50 [10]: 11.2 ± 2.71 µM
IC50 [11]: 7.77 ± 0.02 µM
IC50 [12]: 17.1 ± 0.55 µM
IC50 [13]: 10 ± 2.28 µM
IC50 [14]: 4.92 ± 2.26 µM
IC50 [15]: 0.86 ± 0.15 µM
IC50 [16]: 9.12 ± 3.06 µM
IC50 [17]: 8.01 ± 2.53 µM
IC50 [18]: 10.1 ± 3.97 µM
IC50 [19]: 6.64 ± 0.81 µM
best tumor inhibition percentage [20]: > 70%
best tumor inhibition percentage [21]: > 70%
best tumor inhibition percentage [22]: > 70%
best tumor inhibition percentage [23]: > 70%
best tumor inhibition percentage [24]: > 70%
best tumor inhibition percentage [25]: > 70%
